Measured values as given in the NIST ThermoML archive (doi:10.1021/je1005533).
Numbers after ± are expanded uncertainties.

Key:
[1] = refractive index (other wavelength) (dimensionless); xn = mol fraction of the nth substance listed; conditions: 101.3 kPa, Liquid, Wavelength=632.8 nm, Standard Abbe refractometry
[2] = refractive index (other wavelength) (dimensionless); conditions: 101.3 kPa, Liquid, Wavelength=632.8 nm, Standard Abbe refractometry

COC(=O)OC [dimethyl carbonate] + CCCCCCCCCCCCCCCCCC
Conditions	refractive index
[1], 327.67 K, x1 = 1	1.3514 ± 0.0007

CCCCCCCCCCCCCCCC [hexadecane]
[2]
Conditions	refractive index
308.21 K	1.427 ± 0.0007
309.24 K	1.4265 ± 0.0007
310.21 K	1.4261 ± 0.0007
311.24 K	1.4256 ± 0.0007
312.3 K	1.4252 ± 0.0007
313.34 K	1.4248 ± 0.0007
314.44 K	1.4244 ± 0.0007
315.54 K	1.4239 ± 0.0007
316.55 K	1.4235 ± 0.0007
317.56 K	1.4231 ± 0.0007
318.61 K	1.4226 ± 0.0007

CCCCCCCCCCCCCCCCCC [octadecane]
Conditions	refractive index
[2], 327.67 K	1.4231 ± 0.0007

CCCCCCCCCCCCCCCCCC [octadecane] + COC(=O)OC
[1], 327.67 K
Conditions	refractive index
x2 = 0	1.4231 ± 0.0007
x2 = 0.099	1.4203 ± 0.0007
x2 = 0.202	1.4169 ± 0.0007
x2 = 0.299	1.4132 ± 0.0007
x2 = 0.399	1.4089 ± 0.0007
x2 = 0.509	1.4034 ± 0.0007
x2 = 0.601	1.3979 ± 0.0007
x2 = 0.701	1.3907 ± 0.0007
x2 = 0.807	1.3806 ± 0.0007
x2 = 0.902	1.3685 ± 0.0007

COC(=O)OC [dimethyl carbonate] + CCCCCCCCCCCCCCCC
[1], x1 = 1
Conditions	refractive index
308.25 K	1.3607 ± 0.0007
309.26 K	1.3602 ± 0.0007
310.32 K	1.3597 ± 0.0007
311.36 K	1.3592 ± 0.0007
312.44 K	1.3587 ± 0.0007
313.49 K	1.3582 ± 0.0007
314.53 K	1.3577 ± 0.0007
315.56 K	1.3572 ± 0.0007
316.66 K	1.3567 ± 0.0007
317.67 K	1.3562 ± 0.0007
318.72 K	1.3557 ± 0.0007

COC(=O)OC [dimethyl carbonate]
[2]
Conditions	refractive index
308.25 K	1.3607 ± 0.0006
309.26 K	1.3602 ± 0.0006
310.32 K	1.3597 ± 0.0006
311.36 K	1.3592 ± 0.0006
312.44 K	1.3587 ± 0.0006
313.49 K	1.3582 ± 0.0006
314.53 K	1.3577 ± 0.0006
315.56 K	1.3572 ± 0.0006
316.66 K	1.3567 ± 0.0006
317.67 K	1.3562 ± 0.0006
318.72 K	1.3557 ± 0.0006
327.67 K	1.3514 ± 0.0006
